Laboratory results reported in ChEMBL document CHEMBL5465560, “Selectivity Literature for EUbOPEN Chemogenomic Library” (2024).
One block for each compound: values may come before it.

What was measured:
[1] = target: T1, Casein kinase I isoform alpha-like (Homo sapiens) (UniProt Q8N752); settings: at 10 µM
T1 sequence (whole entry): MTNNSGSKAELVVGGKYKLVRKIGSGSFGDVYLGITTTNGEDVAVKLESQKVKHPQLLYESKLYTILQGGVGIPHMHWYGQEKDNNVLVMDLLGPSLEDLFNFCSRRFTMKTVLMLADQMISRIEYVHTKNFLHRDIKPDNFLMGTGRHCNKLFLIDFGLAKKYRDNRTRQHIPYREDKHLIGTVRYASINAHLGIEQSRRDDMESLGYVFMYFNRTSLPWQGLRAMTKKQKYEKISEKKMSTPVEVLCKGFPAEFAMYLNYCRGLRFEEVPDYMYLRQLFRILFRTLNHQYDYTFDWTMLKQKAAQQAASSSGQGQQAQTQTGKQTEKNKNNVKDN

[2] = target: T2, Myotonin-protein kinase (Homo sapiens) (UniProt Q09013); assay: Selectivity interaction (Ambit KINOMEscan and KiNATiv profiling in Jurkat cells) EUB0000090b DMPK; assay type: cell-based; settings: at 1 µM
T2 sequence (whole entry): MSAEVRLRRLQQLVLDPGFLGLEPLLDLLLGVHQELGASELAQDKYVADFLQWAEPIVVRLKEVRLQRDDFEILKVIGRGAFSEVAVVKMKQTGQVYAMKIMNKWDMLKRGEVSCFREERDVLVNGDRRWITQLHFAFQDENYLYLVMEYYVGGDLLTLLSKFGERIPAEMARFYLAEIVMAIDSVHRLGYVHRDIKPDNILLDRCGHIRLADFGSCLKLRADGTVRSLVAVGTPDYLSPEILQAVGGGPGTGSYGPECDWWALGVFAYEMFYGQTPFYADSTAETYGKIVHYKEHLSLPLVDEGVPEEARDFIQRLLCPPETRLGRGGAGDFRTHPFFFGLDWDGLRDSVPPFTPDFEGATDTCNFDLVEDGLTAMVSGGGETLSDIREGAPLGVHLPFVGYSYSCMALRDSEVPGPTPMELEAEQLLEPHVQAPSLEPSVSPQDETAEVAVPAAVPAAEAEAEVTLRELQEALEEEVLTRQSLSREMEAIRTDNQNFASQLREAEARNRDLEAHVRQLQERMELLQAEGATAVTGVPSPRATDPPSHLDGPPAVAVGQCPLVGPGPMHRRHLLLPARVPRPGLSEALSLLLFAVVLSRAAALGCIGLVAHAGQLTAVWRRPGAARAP

[3] = target: Phosphatidylinositol 4-phosphate 3-kinase C2 domain-containing subunit alpha (Homo sapiens) (UniProt O00443); assay: Selectivity interaction (Kinase panel (Invitrogen)) EUB0000639a PIK3C2A; settings: at 200 nM
[4] = target: STE20-like serine/threonine-protein kinase (Homo sapiens, UniProt Q9H2G2); assay: Selectivity interaction (ActivX KiNativ screen (kinase selectivity in THP-1 cell lysates)) EUB0000639a SLK; assay type: subcellular; settings: lysate
[5] = target: Fibroblast growth factor receptor 3 (Homo sapiens, UniProt P22607); assay: Selectivity interaction (ProQinase) EUB0000171b FGFR3; settings: at 5 µM
[6] = target: T3, NUAK family SNF1-like kinase 1 (Homo sapiens) (UniProt O60285); assay: Selectivity interaction (KinomeScan (DiscoverX)) EUB0000092b NUAK1; settings: at 10 µM
T3 sequence (whole entry): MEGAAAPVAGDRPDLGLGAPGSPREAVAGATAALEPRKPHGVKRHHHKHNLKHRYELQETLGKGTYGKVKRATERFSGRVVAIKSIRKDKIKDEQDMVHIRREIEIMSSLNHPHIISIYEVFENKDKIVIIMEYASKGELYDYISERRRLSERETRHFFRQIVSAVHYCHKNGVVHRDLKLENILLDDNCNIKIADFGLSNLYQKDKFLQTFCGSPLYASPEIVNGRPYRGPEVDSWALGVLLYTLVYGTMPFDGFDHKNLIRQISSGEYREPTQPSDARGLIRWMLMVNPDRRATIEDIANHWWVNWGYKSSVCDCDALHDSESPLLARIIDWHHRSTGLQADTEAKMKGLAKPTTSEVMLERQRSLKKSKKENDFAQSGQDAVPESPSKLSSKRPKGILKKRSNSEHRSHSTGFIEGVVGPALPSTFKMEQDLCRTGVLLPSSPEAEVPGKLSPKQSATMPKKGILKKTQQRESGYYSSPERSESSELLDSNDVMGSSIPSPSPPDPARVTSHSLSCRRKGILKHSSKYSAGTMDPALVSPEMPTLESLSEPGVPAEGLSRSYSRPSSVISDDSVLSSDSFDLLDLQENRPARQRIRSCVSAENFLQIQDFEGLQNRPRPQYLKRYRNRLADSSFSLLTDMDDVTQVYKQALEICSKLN

Chain of STE20-like serine/threonine-protein kinase (Q9H2G2 whole entry, looked up): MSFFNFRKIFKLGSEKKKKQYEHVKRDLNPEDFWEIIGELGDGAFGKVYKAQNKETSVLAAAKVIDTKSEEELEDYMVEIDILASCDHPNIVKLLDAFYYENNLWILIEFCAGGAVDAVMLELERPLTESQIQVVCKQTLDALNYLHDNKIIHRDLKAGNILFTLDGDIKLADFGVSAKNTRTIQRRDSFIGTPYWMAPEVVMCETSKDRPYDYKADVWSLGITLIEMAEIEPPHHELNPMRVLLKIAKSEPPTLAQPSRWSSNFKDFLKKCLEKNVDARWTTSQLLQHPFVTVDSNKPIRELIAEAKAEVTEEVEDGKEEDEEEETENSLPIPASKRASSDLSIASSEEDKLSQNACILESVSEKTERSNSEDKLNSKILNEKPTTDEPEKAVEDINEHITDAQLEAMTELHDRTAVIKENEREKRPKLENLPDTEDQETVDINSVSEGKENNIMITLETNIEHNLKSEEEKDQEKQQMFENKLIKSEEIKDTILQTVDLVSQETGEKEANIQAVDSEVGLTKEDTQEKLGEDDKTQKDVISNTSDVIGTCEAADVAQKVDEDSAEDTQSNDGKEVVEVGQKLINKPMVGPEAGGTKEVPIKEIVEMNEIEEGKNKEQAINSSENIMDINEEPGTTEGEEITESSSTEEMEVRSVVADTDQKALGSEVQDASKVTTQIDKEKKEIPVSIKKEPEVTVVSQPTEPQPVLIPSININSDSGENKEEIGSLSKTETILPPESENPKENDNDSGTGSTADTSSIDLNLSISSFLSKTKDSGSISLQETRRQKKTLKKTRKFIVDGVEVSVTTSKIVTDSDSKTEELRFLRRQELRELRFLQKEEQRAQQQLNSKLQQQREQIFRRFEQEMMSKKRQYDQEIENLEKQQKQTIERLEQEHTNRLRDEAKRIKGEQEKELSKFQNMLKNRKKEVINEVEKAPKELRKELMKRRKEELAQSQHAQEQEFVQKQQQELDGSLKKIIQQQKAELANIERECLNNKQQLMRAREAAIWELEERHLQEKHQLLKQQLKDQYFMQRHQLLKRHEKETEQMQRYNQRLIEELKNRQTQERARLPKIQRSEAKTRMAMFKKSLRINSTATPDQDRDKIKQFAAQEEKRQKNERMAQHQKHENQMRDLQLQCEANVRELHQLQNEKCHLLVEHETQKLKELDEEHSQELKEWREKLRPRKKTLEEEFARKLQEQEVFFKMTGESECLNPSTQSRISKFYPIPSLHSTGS
Chain of Phosphatidylinositol 4-phosphate 3-kinase C2 domain-containing subunit alpha (Homo sapiens) (O00443 whole entry, the tested form may be a part): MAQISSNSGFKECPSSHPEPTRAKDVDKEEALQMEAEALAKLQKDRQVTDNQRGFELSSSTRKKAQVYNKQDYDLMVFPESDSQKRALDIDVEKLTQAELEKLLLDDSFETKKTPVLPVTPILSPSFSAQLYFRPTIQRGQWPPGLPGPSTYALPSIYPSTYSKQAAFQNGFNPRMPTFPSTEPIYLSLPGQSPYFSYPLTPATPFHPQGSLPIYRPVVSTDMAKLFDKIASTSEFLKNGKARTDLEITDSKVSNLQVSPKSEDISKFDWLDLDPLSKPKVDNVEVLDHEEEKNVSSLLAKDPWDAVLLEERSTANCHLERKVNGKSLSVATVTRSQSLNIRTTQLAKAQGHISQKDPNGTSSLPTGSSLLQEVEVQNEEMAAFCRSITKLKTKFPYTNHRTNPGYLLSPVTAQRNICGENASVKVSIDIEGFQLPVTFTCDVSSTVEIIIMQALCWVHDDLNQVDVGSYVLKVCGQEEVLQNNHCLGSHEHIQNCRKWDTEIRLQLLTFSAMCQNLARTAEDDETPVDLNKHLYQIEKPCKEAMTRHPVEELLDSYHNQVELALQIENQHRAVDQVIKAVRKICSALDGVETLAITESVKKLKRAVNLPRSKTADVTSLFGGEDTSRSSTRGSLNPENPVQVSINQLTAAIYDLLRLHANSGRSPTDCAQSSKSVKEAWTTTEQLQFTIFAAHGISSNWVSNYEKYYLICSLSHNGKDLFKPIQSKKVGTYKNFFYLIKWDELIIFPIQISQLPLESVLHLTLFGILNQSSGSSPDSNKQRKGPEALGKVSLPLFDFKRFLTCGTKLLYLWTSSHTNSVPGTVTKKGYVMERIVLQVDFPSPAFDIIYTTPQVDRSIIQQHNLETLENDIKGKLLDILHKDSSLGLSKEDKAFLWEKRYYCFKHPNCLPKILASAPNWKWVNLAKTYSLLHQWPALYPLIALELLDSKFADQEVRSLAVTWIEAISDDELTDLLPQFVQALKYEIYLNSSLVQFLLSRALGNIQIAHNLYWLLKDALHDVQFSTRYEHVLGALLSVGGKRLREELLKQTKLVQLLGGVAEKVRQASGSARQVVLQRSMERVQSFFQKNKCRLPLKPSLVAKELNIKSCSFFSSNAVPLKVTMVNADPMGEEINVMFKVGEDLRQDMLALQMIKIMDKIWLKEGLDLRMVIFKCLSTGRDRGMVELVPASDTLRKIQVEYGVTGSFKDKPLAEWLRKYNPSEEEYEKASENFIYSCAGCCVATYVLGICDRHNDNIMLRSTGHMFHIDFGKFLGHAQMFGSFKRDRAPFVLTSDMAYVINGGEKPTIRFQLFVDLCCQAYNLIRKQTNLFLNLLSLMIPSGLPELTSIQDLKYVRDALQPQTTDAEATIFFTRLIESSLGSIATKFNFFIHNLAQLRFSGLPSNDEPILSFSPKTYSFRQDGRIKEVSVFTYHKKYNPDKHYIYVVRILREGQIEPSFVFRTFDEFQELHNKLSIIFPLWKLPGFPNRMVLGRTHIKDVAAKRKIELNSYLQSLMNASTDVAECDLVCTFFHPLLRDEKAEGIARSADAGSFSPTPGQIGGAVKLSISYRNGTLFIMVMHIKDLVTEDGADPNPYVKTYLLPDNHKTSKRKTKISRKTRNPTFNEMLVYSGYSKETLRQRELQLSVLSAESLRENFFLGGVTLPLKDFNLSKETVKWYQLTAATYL
Chain of Fibroblast growth factor receptor 3 (P22607 23-806 limits assumed): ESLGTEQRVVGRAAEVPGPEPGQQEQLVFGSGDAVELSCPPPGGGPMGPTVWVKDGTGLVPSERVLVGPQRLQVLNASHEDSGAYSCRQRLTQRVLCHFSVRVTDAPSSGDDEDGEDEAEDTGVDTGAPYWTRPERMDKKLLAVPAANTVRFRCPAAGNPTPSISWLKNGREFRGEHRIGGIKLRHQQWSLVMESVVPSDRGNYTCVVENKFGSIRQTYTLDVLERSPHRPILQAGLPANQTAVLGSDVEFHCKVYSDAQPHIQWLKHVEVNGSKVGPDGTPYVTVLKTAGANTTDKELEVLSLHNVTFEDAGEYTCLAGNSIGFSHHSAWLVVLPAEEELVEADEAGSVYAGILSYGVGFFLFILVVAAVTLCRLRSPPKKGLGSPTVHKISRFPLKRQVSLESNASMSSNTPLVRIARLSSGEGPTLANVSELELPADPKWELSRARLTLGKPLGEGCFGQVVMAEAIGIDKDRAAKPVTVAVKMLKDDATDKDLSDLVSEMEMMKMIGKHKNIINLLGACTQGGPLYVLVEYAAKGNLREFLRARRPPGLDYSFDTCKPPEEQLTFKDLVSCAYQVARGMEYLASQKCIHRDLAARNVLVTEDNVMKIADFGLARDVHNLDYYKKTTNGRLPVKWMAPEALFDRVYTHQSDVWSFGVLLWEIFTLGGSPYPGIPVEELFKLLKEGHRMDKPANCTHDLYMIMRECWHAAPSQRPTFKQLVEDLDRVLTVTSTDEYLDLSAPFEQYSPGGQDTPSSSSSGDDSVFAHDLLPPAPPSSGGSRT

SMILES: Cc1cc([C@@H](C)Nc2ccccc2C(=O)O)c2nc(N3CCOCC3)cc(=O)n2c1 [AZD-6482]
- % of control [1]: 100%

SMILES: CN(C)C/C=C/C(=O)Nc1ccc(C(=O)N2CCCC(Nc3ncc(Cl)c(-c4c[nH]c5ccccc45)n3)C2)cc1 (stereo not given)
- % of control [2]: 91%

- % of inhibition [3]: -2.62%
- % of inhibition ([4]; at 0.01 µM): 3.3%
- % of inhibition ([4]; at 0.04 µM): -3.6%
- % of inhibition ([4]; at 0.2 µM): -8.9%
- % of inhibition ([4]; at 1 µM): -13.7%
- % of inhibition ([4]; at 5 µM): -7.8%
SMILES: CC[C@@H]1[C@H](F)C(=O)N[C@@H]1COc1nccc2cc(C(N)=O)c(OC)cc12 [ZIMLOVISERTIB]

- % of control [5]: 91%
SMILES: C=CC(=O)Nc1cccc(C(=O)Nc2ccc(Nc3cc(-c4[nH]c(SC)nc4C)ccn3)cc2)c1

SMILES: CCC(=O)N1CCN(c2ccc(-n3c(=O)ccc4cnc5ccc(-c6cnc7ccccc7c6)cc5c43)cc2C(F)(F)F)CC1
- % of control [6]: 100%
